Measurements published in patent US20070231256A1, “Compositions and methods for detecting and treating tumors containing acidic areas” (priority 2006, published 2007).
“And” between values parts separate entries of the source, which are not always exact repeats. Equal entries are not always repeated.

Columns and labels:
tumors = details: tumor-bearing mice, reduction of about 0.3 pH units in the tumors; cited from earlier work
[1] = Henderson-Hasselbalch calculation of percent in acid form; details: calculated; for Percent in Acid Form at pH 6.4: pH 6.4 (acidic areas of tumors); for Percent in Acid Form at pH 7.4: pH 7.4 (normal tissues)
Excerpt: The interstitial space in normal tissues is generally at or very near pH 7.4, and in acidic areas of tumors a pH of around 6.4 is fairly typical or readily achievable by known methods. If one knows the pKa value of an acid substance (pKa is the pH at which the acid moiety is half ionized in aqueous solution) one can use the Henderson-Hasselbalch equation (pH=pKa+log [A−]/[HA]) to calculate what fraction of that substance will be in the acid form at any selected pH. […] It should be noted that for carboxyl-containing substances whose acid forms are water soluble, the pKa and pS values are quite similar.
In these calculations the Henderson-Hasselbalch equation was used to calculate the relative concentration of salt and acid forms at a given pH for a substance having acid moieties with a specified pKa or pS value. Then a binomial expansion was used to calculate the concentration of the all-acid form for an onco tool containing 2 or 3 pH-switch components.

physchem = test: physchem
Description: In regard to initial testing, a simple pH titration of the prospective pH-switch structure in physiological saline is fast and easy and provides useful information about the key properties one is attempting to achieve.
Typically new structures that may be suitable as advanced pH-switch components are first assessed for their pS value. This entails preparing the sodium salt form of the structure and dissolving it at a concentration of 20 milliMolar in 15 ml of 0.15 Molar NaCl (deareated to remove CO2). […] A plot of pH versus volume of added HCl affords the pS value.
The sodium salts of compounds shown in FIG. 11a (designed to form internal acid-specific H-bond) and 11b (designed to form non-acid-specific H-bonds) were titrated in aqueous solution.

pKa (physchem) | minimum of first derivative of the titration curve (pH) (physchem; titrated in water / aqueous solution) | SMILES | improvement in tumor growth delay (tumors) [fold] | Percent in Acid Form at pH 6.4 [1] [%] | Percent in Acid Form at pH 7.4 [1] [%]
– | – | O=C(O)CCCc1ccc(N(CCCl)CCCl)cc1 [Chlorambucil] | 1.7 | 20.1 | 2.4
5.5 | – | CCCCCCCC(=O)O [octanoic acid] | – | – | –
– | – | CCC(=O)O [propionic acid] | – | 2.9 | 0.3
– | ~4.0 and ~5.6 | CCC[N+]1([O-])CCC(C(=O)O)CC1 (stereo not shown) [structure iii in FIG. 15b, N-oxide of N-propylisonipocotic acid] | – | – | –
